The text below walks through data of patent US6908930B2, “4-substituted 7-AZA-indolin-2-ones and their use as protein kinase inhibitors” (Sugen, Inc., priority 1999, dated 2005).

Like-named read-outs stand apart in the source and are kept apart here.

The target of one experiment is T1, EGFR (Homo sapiens, UniProt P00533).
T1 construct: A431 […] cell lysate is stored at −80° C; host or cells: A431 cell lysate
The experiment can be described thus: Assay for modulation of EGFR activity (ELISA). It is filed as biochemical. The method, then:
Using the following reagents, supplies, and method, the ability of compounds of the invention to modulate the in vitro activity of EGFR can be readily determined in an ELISA.
A431 […] cell lysate is stored at −80° C.
ATP/MnCl2 phosphorylation mix is prepared by adding 300 μL of 1.0 mM ATP and […] of 1M MnCl2 to 9.2 mL of dH2O and mixing. Ten mL of phosphorylation mix is enough for about 6 assay plates. Note that the mixture should be made fresh and kept on ice immediately before use, and that although the preferred ATP is fresh from powder stock, any remaining stock solution of ATP may be frozen at −20° C. in small aliquots to be used at a later time.
Coat Corning 96 well ELISA plates with 0.5 μg per well with SUMO1 in a volume of 100 μL PBS overnight, at 4° C. Remove unbound SUMO1 from wells by inverting plate to remove liquid. Wash 1× with distilled H2O by filling wells. Pat the plate on a paper towel to remove excess liquid.
Add 150 μL of Blocking Buffer to each well. Incubate for 30 minutes at room temperature, with shaking. Wash plate 3× with deionized water, then once with TBST. Pat plate on a paper towel to remove excess liquid and bubbles.
Dilute lysate in PBS (7 μg lysate/[…]) and add 100 μL of diluted lysate to each well. Shake at room temperature for 60 minutes. Wash 1× with distilled H2O by filling wells. Pat the plate on a paper towel to remove excess liquid.
Add 120 μL TBST to ELISA plate containing captured EGFR.
Dilute drugs/extracts 1:10 (unless specified otherwise) in TBST in 96-well polypropylene plates. (i.e., 10 μL compound+90 μL TBST). Add 13.5 μL diluted drugs/extracts to ELISA plate. […] Incubate for 30 minutes while shaking at room temperature.
Approximately 150 μL final volume in well with 3 uM ATP/5 mM MnCl2 final concentration in well. Incubate 5 minutes while shaking. Note that this is a timed event. It is critical that ATP/MnCl2 phosphorylates the receptor for only 5 minutes. It is best to add the ATP/MnCl2 with an automated 96 place pipettor workstation, then 5 minutes later stop the reaction with EDTA using the same workstation. Alternatively, addition can be performed using a 12 channel pipettor 1 row at a time, leaving 20 seconds between each row so that the reaction may be stopped with EDTA exactly 5 minutes later (this depends on the number of plates being phosphorylated in one batch). Shake between each addition.
[…] This is done using either the same work station as above, or the same timing method employed with the 12 channel pipettor. After the EDTA has been added, shake for 1 minute. Wash 4× with deionized water, twice with TBST.
Add 100 μL per well of anti-phosphotyrosine (1:3000 dilution in TBST). Incubate 30-45 minutes at room temperature, with shaking. Wash 1× with distilled H2O by filling wells. Pat the plate on a paper towel to remove excess liquid.
Incubate 30 minutes at room temperature, with shaking. Wash 1× with distilled H2O by filling wells. Pat the plate on a paper towel to remove excess liquid.
Add 100 μL of ABTS/H2O2 solution to each well. Incubate 5 to 10 minutes while shaking. Remove any bubbles. If necessary stop reaction with the addition of 100 μL of 0.2M HCl per well.
(§1) Read assay on Dynatech MR7000 ELISA reader.
In general terms: ELISA stands for enzyme-linked immunosorbent assay.

A further experiment addresses T2, PDGFR (Homo sapiens, UniProt P09619).
T2 construct: expressed in transfected cells; host or cells: NIH3T3
The experiment can be described thus: Assay for modulation of PDGFR activity (ELISA). The following applies: read-out: bio PDGFR IC50. It is filed as biochemical. The protocol:
Using the following reagents, supplies, and methods, the ability of the compounds of the invention to modulate the in vitro activity of the PDGFR can be readily determined in an enzyme-linked immunosorbent assay (ELISA).
Monoclonal anti-PDGFR antibody (28D4C10) is stored at −20° C. in 50 mL tubes prior to use.
Lysates from PDGFR-β expressing NIH3T3 cells are obtained and stored at −80° C. in 1 mL aliquots. PDGFR-β expression in eukaryotic cells is well known in the art. Lysates are prepared by the following method. Place carrier dishes in ice trays, and after cooling, remove the media and replace with ice cold PBS. Remove the PBS and repeat. […] Take up lysate with a pipettor and add to a 30 mL centrifuge tube on ice. Vortex the tubes for 30-60 seconds and then centrifuge for 10 minutes at 7000 rpm in a J-20 rotor which has been precooled to below 0° C. Recover the supernatants and combine them in a 250 mL tube and place on ice. Perform protein determination to measure the total quantity of protein per mL of solution. Aliquot the lysate into 1 mL fractions and store at −80° C.
Coat Corning 96 well ELISA plates with 0.5 μg per well 28D4C10 antibody in a volume of 100 μl PBS overnight, at 4° C. and remove unbound antibody, 28D4C10, from wells by inverting plate to remove liquid. Wash 1× with distilled H2O by filling wells. Pat the plate on a paper towel to remove excess liquid.
Add 150 μL of Blocking Buffer to each well. Incubate for 30 minutes at room temperature, with shaking and wash plate 3× with deionized water, then once with TBST. Pat plate on a paper towel to remove excess liquid and bubbles
Dilute lysate in PBS (10 mg lysate/100 μL PBS). Add 100 μL of diluted lysate to each well. Shake at room temperature for 60 min. Wash plate 3× with deionized water, then once with TBST. Pat plate on a paper towel to remove excess liquid and bubbles.
Add 80 μL Kinase Buffer to ELISA plate containing captured PDGFR.
Dilute drugs/extracts 1:10 (unless specified otherwise) in TBS+10% DMSO in 96-well polypropylene plates. (i.e., 10 μL compound+90 μL (TBS+10% DMSO)). Add 10 μL diluted drugs/extracts to ELISA plate. […] Incubate for 30 minutes while shaking at room temperature.
After 30 minutes stop reaction with addition of 10 μL of 200 mM EDTA pH 8.0 for 20 mM final in well. Wash 4× with deionized water, twice with TBST.
Incubate 30-45 minutes at room temperature, with shaking. Wash plate 3× with deionized water, then once with TBST. Pat plate on a paper towel to remove excess liquid and bubbles.
Incubate 30 minutes at room temperature with shaking. Wash plate 3× with deionized water, then once with TBST. Pat plate on a paper towel to remove excess liquid and bubbles.
Add 100 μL of ABTS/H2O2 solution to each well. Incubate 10 to 30 minutes while shaking. Remove any bubbles. If necessary stop reaction with the addition of 100 μL of 0.2M HCl per well
as §1

T1 sequence (P00533 25-1210): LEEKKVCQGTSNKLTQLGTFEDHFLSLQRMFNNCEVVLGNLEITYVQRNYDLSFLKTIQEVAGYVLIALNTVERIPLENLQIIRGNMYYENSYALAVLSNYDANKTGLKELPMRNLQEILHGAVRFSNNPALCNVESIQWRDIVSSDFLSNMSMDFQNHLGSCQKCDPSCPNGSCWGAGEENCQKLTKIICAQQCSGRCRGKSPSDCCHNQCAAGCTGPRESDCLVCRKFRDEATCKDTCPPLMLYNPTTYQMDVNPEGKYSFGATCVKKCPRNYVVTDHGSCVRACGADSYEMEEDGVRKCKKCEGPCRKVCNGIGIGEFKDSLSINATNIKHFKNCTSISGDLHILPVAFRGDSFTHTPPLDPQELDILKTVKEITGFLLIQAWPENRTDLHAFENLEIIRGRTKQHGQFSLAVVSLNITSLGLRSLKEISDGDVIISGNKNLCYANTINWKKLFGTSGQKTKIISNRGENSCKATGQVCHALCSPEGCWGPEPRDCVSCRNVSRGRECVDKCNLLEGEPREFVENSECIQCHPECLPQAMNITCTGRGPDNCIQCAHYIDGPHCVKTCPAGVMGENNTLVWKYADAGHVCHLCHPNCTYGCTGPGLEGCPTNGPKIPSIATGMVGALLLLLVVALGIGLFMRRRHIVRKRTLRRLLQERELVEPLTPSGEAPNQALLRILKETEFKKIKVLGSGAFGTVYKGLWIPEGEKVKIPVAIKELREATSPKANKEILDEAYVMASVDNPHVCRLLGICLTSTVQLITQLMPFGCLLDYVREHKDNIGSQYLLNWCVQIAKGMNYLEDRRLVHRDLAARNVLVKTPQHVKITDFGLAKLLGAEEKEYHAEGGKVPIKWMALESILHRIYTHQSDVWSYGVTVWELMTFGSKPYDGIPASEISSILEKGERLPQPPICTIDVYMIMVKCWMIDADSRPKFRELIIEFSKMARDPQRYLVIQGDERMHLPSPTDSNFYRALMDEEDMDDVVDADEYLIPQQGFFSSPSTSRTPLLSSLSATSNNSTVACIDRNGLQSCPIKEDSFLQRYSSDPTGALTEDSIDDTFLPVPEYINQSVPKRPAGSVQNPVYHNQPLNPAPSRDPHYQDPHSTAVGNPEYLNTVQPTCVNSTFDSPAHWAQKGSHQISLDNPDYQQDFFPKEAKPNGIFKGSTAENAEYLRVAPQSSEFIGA
T2 sequence (P09619 33-1106, species assumed): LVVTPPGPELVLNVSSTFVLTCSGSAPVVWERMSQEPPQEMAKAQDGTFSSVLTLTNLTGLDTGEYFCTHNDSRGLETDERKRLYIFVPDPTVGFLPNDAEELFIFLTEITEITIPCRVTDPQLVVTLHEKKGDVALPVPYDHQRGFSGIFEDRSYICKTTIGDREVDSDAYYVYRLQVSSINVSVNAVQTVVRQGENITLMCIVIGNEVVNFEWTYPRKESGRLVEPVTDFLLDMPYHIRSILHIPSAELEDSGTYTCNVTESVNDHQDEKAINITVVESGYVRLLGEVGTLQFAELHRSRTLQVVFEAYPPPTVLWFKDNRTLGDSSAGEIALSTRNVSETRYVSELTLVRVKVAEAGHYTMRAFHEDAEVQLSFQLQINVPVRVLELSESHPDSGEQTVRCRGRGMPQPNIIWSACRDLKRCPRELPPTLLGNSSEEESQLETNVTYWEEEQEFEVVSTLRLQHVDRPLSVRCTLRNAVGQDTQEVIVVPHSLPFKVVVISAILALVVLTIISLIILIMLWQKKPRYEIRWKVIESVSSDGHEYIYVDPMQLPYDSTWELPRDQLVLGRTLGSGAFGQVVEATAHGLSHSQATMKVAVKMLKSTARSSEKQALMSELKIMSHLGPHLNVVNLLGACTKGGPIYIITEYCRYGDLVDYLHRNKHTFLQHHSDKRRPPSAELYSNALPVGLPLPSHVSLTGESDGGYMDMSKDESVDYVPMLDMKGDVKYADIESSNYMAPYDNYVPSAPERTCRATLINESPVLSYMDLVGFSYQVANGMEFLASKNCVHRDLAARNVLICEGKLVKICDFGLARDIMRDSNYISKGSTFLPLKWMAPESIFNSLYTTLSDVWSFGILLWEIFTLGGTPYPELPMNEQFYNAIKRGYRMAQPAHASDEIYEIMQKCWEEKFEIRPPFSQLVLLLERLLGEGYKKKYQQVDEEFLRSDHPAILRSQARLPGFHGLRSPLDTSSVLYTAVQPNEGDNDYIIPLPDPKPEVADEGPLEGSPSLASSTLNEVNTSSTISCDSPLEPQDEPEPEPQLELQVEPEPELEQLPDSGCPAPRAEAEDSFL

Usually IC50 stands for the concentration that gives 50% inhibition. As for `Cc1[nH]c(C=C2C(=O)Nc3ncnc(Nc4ccc(F)c(Cl)c4)c32)c(C)c1CCC(=O)O` [Formula 19, 3-{5-[4-(3-CHLORO-4-FLUORO-PHENYLAMINO)-6-OXO-6,7-DIHYDRO-PYRROLO[2,3-D]PYRIMIDIN-5-YLIDENEMETHYL]-2,4-DIMETHYL-1H-PYRROL-3-YL}-PROPIONIC ACID], the concentration for half-maximal inhibition (IC50) is 170 nM at EGFR (read-out: bio EGFR IC50) and 12800 nM at PDGFR.

Take `Cc1[nH]c(/C=C2\C(=O)Nc3ncnc(Nc4ccc(F)c(Cl)c4)c32)c(C)c1CCC(=O)N1CCCC1` [Formula 24]: the IC50 at EGFR (read-out: bio EGFR IC50) is 890 nM; at PDGFR, more than 20000 nM.

`Cc1cc(C(=O)N2CCOCC2)[nH]c1/C=C1\C(=O)Nc2ncnc(Nc3ccc(F)c(Cl)c3)c21` [Formula 26] displayed a concentration for half-maximal inhibition (IC50) on EGFR of 160 nM.

On EGFR, `Cc1c(C(=O)N2CCN(C)CC2)c[nH]c1/C=C1\C(=O)Nc2ncnc(Nc3ccc(F)c(Cl)c3)c21` [Formula 29] displayed an IC50 of 450 nM.

As to `Cc1[nH]c(/C=C2\C(=O)Nc3ncnc(Nc4ccc(F)c(Cl)c4)c32)c(C)c1CCC(=O)N1CCOCC1` [Formula 30], the IC50 on EGFR (read-out: bio EGFR IC50) is 770 nM; at PDGFR, more than 20000 nM.

In the case of `O=C1Nc2ncnc(Nc3ccc(F)c(Cl)c3)c2/C1=C/c1ccc(C(=O)N2CCOCC2)[nH]1` [Formula 33], the IC50 was 900 nM at EGFR (read-out: bio EGFR IC50) and more than 20000 nM at PDGFR.

For `Cc1cc(C)c(/C=C2\C(=O)N(C)c3ncnc(Nc4ccc(F)c(Cl)c4)c32)[nH]1` [Formula 38], the IC50 on EGFR (read-out: bio EGFR IC50) worked out at 5600 nM.

As for `Cc1cc(C(=O)N2CCN(C)CC2)[nH]c1/C=C1\C(=O)Nc2ncnc(Nc3ccc(F)c(Cl)c3)c21` [Formula 39], at EGFR, it took 4 nM to reach half-maximal inhibition (IC50).

Take `Cc1[nH]c(/C=C2\C(=O)N(C)c3ncnc(Nc4ccc(F)c(Cl)c4)c32)c(C)c1CCC(=O)O` [Formula 40]: the IC50 at EGFR (read-out: bio EGFR IC50) turned out to be 4200 nM.

In the case of `Cc1[nH]c(/C=C2\C(=O)Nc3ncnc(Nc4ccc(F)c(Cl)c4)c32)c(C)c1C(=O)N1CCN(C)CC1` [Formula 41], the results for the IC50 on EGFR (read-out: bio EGFR IC50) and on PDGFR were 540 nM and more than 20000 nM, respectively.

`Cc1cc(CCC(=O)O)[nH]c1/C=C1\C(=O)N(C)c2ncnc(Nc3ccc(F)c(Cl)c3)c21` [Formula 42]: the IC50 on EGFR (read-out: bio EGFR IC50) is 10400 nM.

On to `Cc1[nH]c(/C=C2\C(=O)Nc3ncnc(Nc4ccc(F)c(Cl)c4)c32)c(C)c1C(=O)N1CCOCC1` [Formula 43], for which the IC50 at EGFR (read-out: bio EGFR IC50) is 860 nM; at PDGFR, more than 20000 nM.

As for `Cc1[nH]c(/C=C2\C(=O)N(C)c3ncnc(Nc4ccc(F)c(Cl)c4)c32)c(C)c1CCCN1CCOCC1` [Formula 44], the IC50 on EGFR (read-out: bio EGFR IC50) is more than 20000 nM.

Regarding `CN1CCN(C(=O)c2ccc(/C=C3\C(=O)Nc4ncnc(Nc5ccc(F)c(Cl)c5)c43)[nH]2)CC1` [Formula 45], the IC50 was 50 nM at EGFR (read-out: bio EGFR IC50) and more than 20000 nM at PDGFR.

As for `Cc1cc(C(=O)N2CCOCC2)[nH]c1/C=C1\C(=O)Nc2ncnc(NC(C)c3ccccc3)c21` (stereo not shown) [Formula 46], on EGFR (read-out: bio EGFR IC50), the half-maximal inhibitory concentration (IC50) was 1.2 nM.

With `Cc1cc(C(=O)O)[nH]c1/C=C1\C(=O)Nc2ncnc(Nc3ccc(F)c(Cl)c3)c21` [Formula 47], on EGFR (read-out: bio EGFR IC50), the IC50 amounted to 36 nM.

On to `Cc1cc(C(=O)N2CC(C)N(C)C(C)C2)[nH]c1/C=C1\C(=O)Nc2ncnc(Nc3ccc(F)c(Cl)c3)c21` (stereo not shown) [Formula 53], for which the IC50 at EGFR (read-out: bio EGFR IC50) is less than 156 nM.

Consider `CCN1CCN(C(=O)c2cc(C)c(/C=C3\C(=O)Nc4ncnc(Nc5ccc(F)c(Cl)c5)c43)[nH]2)CC1` [Formula 54], for which the IC50 on EGFR (read-out: bio EGFR IC50) is less than 156 nM.
